System: Vero-E6 cells
Assay: cells
Type: cell-based
Conditions: for activation at 10 µM: Chlorocebus sabaeus, Vero C1008, 24 h, read-out: PL_Result

Molecule | activation at 10 µM | PL_Result
N#Cc1ccc(Cn2cncc2CN2CCN(c3cccc(Cl)c3)C(=O)C2)cc1 [SPE_K10958118] | -5.79% | 
Nc1nc2ccc(Cl)cc2c2nc(-c3ccco3)nn12 [SPE_K49049886] | 7.39% | 
CC(C)(C)C(=O)OCC(=O)[C@H]1CC[C@H]2[C@@H]3CCC4=CC(=O)CC[C@]4(C)[C@H]3CC[C@]12C [SPE_K26024145] | -4.69% | 
CC(C)(C)c1ccc(NC(=O)N2CCN(c3ncccc3Cl)CC2)cc1 [SPE_K66541497] | -7.73% | 
O=c1oc(-c2ccc(C(F)(F)F)cc2)nn1Cc1cc(Cl)ccc1O [SPE_K95609758] | 5.3% | 
Cn1nc(-c2ccc(C(F)(F)F)cc2)nc2c(=O)n(C)c(=O)nc1-2 [SPE_K01129913] | -6.15% | 
CC(C)Cn1cnc2c1c(=O)n(C)c(=O)n2C [SPE_K06762493] | -8.79% | 
Oc1cc(Cl)ccc1Oc1ccc(Cl)cc1Cl [SPE_K41731458] | 0.158% | 
Cc1cc(C)c2nc(-c3ccccn3)cc(C(=O)Nc3ccc(S(=O)(=O)Nc4onc(C)c4C)cc3)c2c1 [SPE_K27539181] | 7.09% | 
O=C1NC(O)CCN1[C@@H]1O[C@H](CO)[C@@H](O)[C@H]1O (some centres unmarked) [SPE_A86248581] | -8.11% | 
Nc1ncn([C@@H]2O[C@H](CO)[C@@H](O)[C@H]2O)c(=O)n1 [SPE_K55026842] | -12.3% | 
NCCc1ccc(O)c(O)c1 [SPE_K43887077] | -4.01% | 
Cc1ccsc1/C=C/C1=NCCCN1C [SPE_K71454870] | -13.8% | 
CCn1cc(C(=O)O)c(=O)c2cc(F)c(N3CCNC(C)C3)c(F)c21 (centres unmarked) [SPE_A75850590] | -1.78% | 
CS(=O)(=O)Nc1ccc([N+](=O)[O-])cc1Oc1ccccc1 [SPE_K76775527] | -12.8% | 
O=C(O)CCCNC(=O)c1cccnc1 [SPE_K56691760] | 0.477% | 
CCCCCCCC/C=C\CCCCCCCC(=O)NCCO [SPE_K66956375] | -6.58% | 
CCC(Oc1ccc(Cl)cc1)C(=O)OC1CC2CCC(C1)N2C (centres unmarked) [SPE_A92933783] | -0.394% | 
CCC(N)C(O)c1ccc(O)c(O)c1 (centres unmarked) [SPE_A68509429] | -8.71% | 
COc1cccc(NC(=O)/C=C/c2ccc(Cl)cc2)c1 [SPE_K61536336] | -7.48% | 
Oc1cc2c(cc1O)CN(C(=S)NCCc1ccc(Cl)cc1)CCC2 [SPE_K44849676] | -5.94% | 
c1ccc(C2CC2)c(OCC2=NCCN2)c1 [SPE_K54142781] | -12.4% | 

Molecule | activation at 10 µM | PL_Result
Nc1ccn(C[C@@H](CO)OCP(=O)(O)O)c(=O)n1 [SPE_K96153583] | -12.6% | 
CCCCCCCCCCCCCCCCCCO [SPE_K20501889] | -5.89% | 
COc1nccc(-c2c(-c3ccc(F)cc3)ncn2C2CCNCC2)n1 [SPE_K19412355] | 14.6% | 
C=CCc1ccc(O)c(-c2ccc(O)c(CC=C)c2)c1 [SPE_K98493452] | -13.9% | 
CCOc1ccccc1O[C@@H](c1ccccc1)[C@@H]1CNCCO1.CCOc1ccccc1O[C@H](c1ccccc1)[C@H]1CNCCO1 [SPE_A43974499] |  | 14.61
COCCN1CCC(C(=O)NO)(S(=O)(=O)c2ccc(Oc3ccc(OC(F)(F)F)cc3)cc2)CC1 [SPE_K51102532] | -13.6% | 
O=C1NC(c2cccc([N+](=O)[O-])c2)=CCN1c1ccccc1O [SPE_K48869804] | 1.47% | 
NCC(CS(=O)(=O)O)c1ccc(Cl)cc1 (centres unmarked) [SPE_A24122750] | -1.21% | 
C[C@@H](N)[C@@H](O)c1ccccc1 [SPE_K27853494] | -4.21% | 
CC(C)(O)CC(=O)NCCn1ccc2ncnc(Nc3ccc(Oc4cccc(C(F)(F)F)c4)c(Cl)c3)c21 [SPE_K80343549] | -7.02% | 
O=C(Nc1cccc(Cl)c1)c1ccccn1 [SPE_K66527818] | -8.01% | 
O=C(Oc1cc(S(=O)(=O)c2ccccc2)ccc1[N+](=O)[O-])c1ccc(Cl)cc1 [SPE_K37933329] | -5.26% | 
CCCN(C/C=C/I)C1CCc2cccc(O)c2C1 (centres unmarked) [SPE_A60594020] | 6.75% | 
CC(O)(C(=O)Nc1ccc(S(=O)(=O)c2ccccc2)cc1)C(F)(F)F (centres unmarked) [SPE_A62209527] | -3.22% | 
O=C(Nc1ccc(S(=O)(=O)Nc2ccccc2Cl)c(Cl)c1)c1ccccn1 [SPE_K72687424] | -10.9% | 
CC(=O)NC[C@H]1CN(c2ccc(N3CCN(C(=O)CO)CC3)c(F)c2)C(=O)O1 [SPE_K47554101] | -3.34% | 
COc1ccc(C(=O)c2ccccc2O)c(O)c1 [SPE_K22193694] | -2.64% | 
CNc1ncc2cc(-c3cc(NC(=O)NCCC(C)(C)C)c(F)cc3C)c(C)nc2n1 [SPE_K38385169] | -2.79% | 
COc1ccc(-c2coc3cc(O)cc(O)c3c2=O)cc1 [SPE_K73303757] | -15.6% | 
CN(C)C/C=C/C(=O)Nc1ccc(C(=O)Nc2cccc(Nc3ncc(Cl)c(-c4c[nH]c5ccccc45)n3)c2)cc1 [SPE_K66401437] | 6.67% | 
CN(C)CC(=O)Nc1ccc2[nH]c(=O)c3ccccc3c2c1 [SPE_K11853856] | -0.459% | 
Cc1nc(NC(=O)N2CCC[C@H]2C(N)=O)sc1-c1ccnc(C(C)(C)C(F)(F)F)c1 [SPE_K54997624] | 12.6% | 

Molecule | activation at 10 µM | PL_Result
N#Cc1cccc(-c2nc(-c3cccnc3)no2)c1 [SPE_K40176866] | -7.54% | 
COc1cc2ncn(-c3cc(OCc4ccccc4C(F)(F)F)c(C(N)=O)s3)c2cc1OC [SPE_K90382497] | -7.16% | 
Cc1nc(Nc2ncc(C(=O)Nc3c(C)cccc3Cl)s2)cc(N2CCN(CCO)CC2)n1 [SPE_K49328571] | 0.377% | 
c1cc(-c2cnn3cc(-c4ccc(N5CCNCC5)cc4)cnc23)c2cccnc2c1 [SPE_K59831625] | 29.5% | 
C[C@@H](c1ncncc1F)[C@](O)(Cn1cncn1)c1ccc(F)cc1F [SPE_K06557128] | -4.59% | 
CCCCc1nc(Cl)c(C(=O)O)n1Cc1ccc(-c2ccccc2-c2nnn[nH]2)cc1 [SPE_K23533833] | 4.67% | 
Cc1cc(C)cc(C(=O)OC2CC3CCC(C2)N3C)c1 (centres unmarked) [SPE_A84389633] | 9.75% | 
Ac-PHSCN-NH2 [SPE_K00521308] |  | -0.965
COc1cc(OC)c(OC)cc1C=O [SPE_K88219015] | -0.692% | 
CCN(CCNC(=O)Nc1ccccc1Br)c1cccc(C)c1 [SPE_K03665769] | -3.7% | 
Nc1nc2[nH]nnc2c(=O)[nH]1 [SPE_K53114651] | -1.39% | 
C[C@@H]1C[C@H]2[C@@H]3C[C@H](F)C4=CC(=O)C=C[C@]4(C)[C@@]3(Cl)[C@@H](O)C[C@]2(C)[C@H]1C(=O)COC(=O)C(C)(C)C [SPE_K38003476] | -1.81% | 
CC(=O)OCC(=O)NCCCOc1cccc(CN2CCCCC2)c1 [SPE_K81855038] | -10.7% | 
N#Cc1cc(F)cc(-c2nc(-c3ccc(F)cn3)no2)c1 [SPE_K61043483] | 1.97% | 
CN1CCC[C@@H]1Cc1c[nH]c2ccc(CCS(=O)(=O)c3ccccc3)cc12 [SPE_K30652337] | 1.82% | 
CCN1C(=O)CN=C2NC=C(c3ccc(-c4nnc[nH]4)nc3C)N=C21 [SPE_K16755045] | 5.12% | 
CN(C)C(=O)Oc1cc(OC(=O)N(C)C)cc(C(O)CNC(C)(C)C)c1 (centres unmarked) [SPE_A17462676] | -4.78% | 
CCCC(CCC)C(=O)NCc1ccc2c(cnn2-c2ccccc2OC)c1 [SPE_K51265828] | 1.45% | 
COc1cc2c(cc1C(F)(F)F)N(C(=O)Nc1cc(F)cc(-c3cccnc3)c1)CC2 [SPE_K15424032] | 13.1% | 
CC(C)(S)C(=O)N[C@@H](CS)C(=O)O [SPE_K24697665] | -4.72% | 
Cc1nccc2[nH]c(=O)ccc12 [SPE_K40715924] | -2.15% | 
CC[N+](CC)(CC)CC(=O)Nc1c(C)cccc1C [SPE_K56596464] | -0.251% | 

Molecule | activation at 10 µM | PL_Result
O=C(O)C1=CCNCC1 [SPE_K66480997] | -5.88% | 
NC1CCN(c2cccnc2)C1 (centres unmarked) [SPE_A29844814] | -9.03% | 
CCCCc1nn(-c2ccccc2C(F)(F)F)c(=O)n1Cc1ccc(-c2ccccc2S(=O)(=O)NC(=O)c2sccc2C)cc1 [SPE_K39733634] | -1.37% | 
Cc1cccc(C)c1NC(=O)c1ccccc1C(=O)O [SPE_K05724540] | -3.96% | 
Cc1ccc(C(=O)Nc2ccc(CN3CCN(C)CC3)c(C(F)(F)F)c2)cc1C#Cc1cnc2[nH]ncc2c1 [SPE_K35329391] | -3.83% | 
COc1cc(O)c(C(=O)c2ccccc2)cc1S(=O)(=O)O [SPE_K38602774] | -11.2% | 
N[C@@H](CC(=O)N1CCn2c(nnc2C(F)(F)F)C1)Cc1n[nH]c2c(F)c(F)ccc12 [SPE_K04035716] | -1.31% | 
O=C(O)c1cc(O)c2c(c1)C(=O)c1cccc(O)c1C2=O [SPE_K27335680] | -8.5% | 
c1ccc2oc(C3=NCCN3)cc2c1 [SPE_K22745370] | -9.99% | 
O=C(COc1ccc(C(=O)c2ccccc2)cc1)NC1CCN(Cc2ccccc2)CC1 [SPE_K68810443] | -3.96% | 
CCN(CC)CC1CCCCN1CC(=O)N1c2ccccc2C(=O)Nc2cccnc21 (centres unmarked) [SPE_A00520476] | -3.51% | 
Cc1cc(-c2nncc3c(C(C)(C)C)c(OCc4ncnn4C)nn23)no1 [SPE_K44022883] | -4.38% | 
CC(=O)Oc1cc2c(s1)CCN(C(C(=O)C1CC1)c1ccccc1F)C2 (centres unmarked) [SPE_A83029242] | -4.76% | 
CC(=O)N(OCc1ccccc1)[C@@H]1c2cc(C#N)ccc2OC(C)(C)[C@H]1O [SPE_K42679050] | 0.738% | 
CC(=O)Nc1nc2c(Oc3cc(-c4ccc(C(F)(F)F)cc4)ncn3)cccc2s1 [SPE_K34185671] | -12.4% | 
CN(C)C(=O)Oc1cccc([N+](C)(C)C)c1 [SPE_K18922609] | -9.73% | 
CC(C)OC(=O)c1cc2c(OCC(O)CNC(C)(C)C)cccc2[nH]1 (centres unmarked) [SPE_A15530910] | 15.8% | 
CC(C)[C@@H](N)C(=O)O [SPE_K59424860] | 0.189% | 
C[C@@H]1CN(CC(=O)Nc2ccc3c(c2)Cc2cccc(-c4cc(=O)cc(N5CCOCC5)o4)c2S3)C[C@H](C)O1 [SPE_K36016295] | 15.1% | 
Cc1nnc(C(C)C)n1C1CC2CCC(C1)N2CC[C@H](NC(=O)C1CCC(F)(F)CC1)c1ccccc1 (some centres unmarked) [SPE_A04352665] | -15.3% | 

Source: PMC13083723 (Patterns, 2026)
